Experimental data published in US20110038885A1, “CHEMOKINE ANALOGS” (priority 2007, published 2011).
Numbered stars: 1 amine (or outer) side, 2 acyl side, 3 side chain; on linkers, the order of the positions; unused ones are H or OH. Bridge positions count the residues as written; N and C are the ends. Square brackets hold non-standard residues; d marks the D form. Peptide text beside a SMILES is read from it. * marks the point of attachment. Benzoyl(4-Ph) = O=C(c1ccc(-c2ccccc2)cc1)*; Phenylacetyl(4-Me) = Cc1ccc(CC(=O)*)cc1; Glutaryl = O=C(CCCC(=O)[*:2])[*:1]; 1Naphthoyl = O=C(c1cccc2ccccc12)*; 2Naphthoyl = O=C(c1ccc2ccccc2c1)*; pGlu = O=C1CC[C@@H](C(=O)O)N1; Suc = O=C(CCC(=O)[*:2])[*:1]; X4 = O=C(c1cc2ccccc2[nH]1)*; hCys = N[C@@H](CCS)C(=O)O; Isobutyryl = CC(C)C(=O)*; Orn = NCCC[C@H](N)C(=O)O; Dap = NC[C@H](N)C(=O)O; Piv = CC(C)(C)C(=O)*; Butyryl = CCCC(=O)*; Bz = O=C(c1ccccc1)*; Ahx = NCCCCCC(=O)O; GABA = NCCCC(=O)O; βAla = NCCC(=O)O

Test system: MCP-1
Test: In vitro chemotaxis (trans-well migration) v MCP-1
Type: cell-based, human
Method: To determine whether an agent inhibits a chemokine-induced activity, such as macrophage recruitment, varying amounts of the agent are mixed with cells in the presence of a known chemoattractant. For example, a range of known concentrations of an agent, e.g., a chemokine peptide, is incubated with a defined number (e.g., 10^4-10^6) of human THP-1 monocyte cells in individual wells of the top compartment of a trans-well plate. Chemokine, at a concentration known to cause significant migration of THP-1 cells in the trans-well migration assay, is placed in the lower compartment of a trans-well plate. Cells are then incubated at 37° C. for a period sufficient to allow migration, e.g., 4 hours. After incubation, the cells are gently removed from the top of the filter with a pipette, 20 μl of 20 mM EDTA in simple PBS is added into each top well, and incubated for 20 minutes at 4° C. The filter is carefully flushed with media using a gentle flow, and removed. A standard curve consisting of a two-fold dilution series of THP-1 cells (in 29 μl) is placed to accurately quantify the number of cells that have migrated. Migrated cells are stained with 3 μl of MTT stock dye solution which is added directly into each well (5 mg/ml in RPMI-1640 without phenol red) (Sigma Chemical Co., St. Louis, Mo., USA) and incubated at 37° C. for 4 hours. The media is carefully aspirated from each well, and the converted dye is solubilized by 20 μl of DMSO. Absorbance of converted dye is measured at a wavelength of 595 nm using an ELISA plate reader. The number of migrated cells in each well is then determined by interpolation of the standard curve (see also Imai et al., J. Biol. Chem., 272:15036, 1997). Any method suitable for counting cells can be used, for example, counting with a hemocytometer, incubation of the cells with MTT (see above), or FACS analysis. A negative control assay is also performed, using TGFβ or another non-chemokine chemoattractant (e.g., IL1β or TNFα). To assess whether the agent is cytotoxic, the same concentrations of agent are incubated with THP-1 cells. Agents which 1) are not cytotoxic at levels which inhibit migration, 2) are ineffective at inhibiting the negative control-induced migration, and 3) reduce or inhibit chemokine-induced THP-1 migration, are agents which fall within the scope of the invention.

CC[C@H](C)[C@@H]1NC(=O)[C@H](Cc2c[nH]c3ccccc23)NC(=O)[C@@H](N)CSSC[C@@H](C(N)=O)NC(=O)[C@H](CCC(N)=O)NC1=O [Example 2, c(Cys-Trp-Ile-Gln-Cys)-NH2] (H-CWIQC-NH2; disulfide 1-5)
EC50: 0.007 µM

CC[C@H](C)[C@@H]1NC(=O)[C@H](Cc2c[nH]c3ccccc23)NC(=O)[C@H](CCCCN)NC(=O)[C@@H](NC(=O)[C@@H](CCC(N)=O)NC(C)=O)CSSC[C@@H](C(N)=O)NC(=O)[C@H](CCC(N)=O)NC1=O [Example 3, Ac-DGln-c(Cys-Lys-Trp-Ile-Gln-Cys)-NH2] (Ac-[dQ]CKWIQC-NH2; disulfide 2-7)
EC50: 0.006 µM

CC[C@H](C)[C@@H]1NC(=O)[C@H](Cc2c[nH]c3ccccc23)NC(=O)[C@H](CCCCN)NC(=O)CSCC[C@@H](C(N)=O)NC(=O)[C@H](CCC(N)=O)NC1=O [Example 4, (Ac=Lys=Trp=Ile=Gln=hCyc)=NH2] ({CH2CO}-KWIQ[hCys]-NH2; thioether N-5)
EC50: 0.02 µM

CC[C@H](C)[C@@H]1NC(=O)[C@H](Cc2c[nH]c3ccccc23)NC(=O)[C@H](CCCCN)NC(=O)CCCCCNC(=O)C[C@@H](C(N)=O)NC(=O)[C@H](CCC(N)=O)NC1=O [Example 5, c(Ahx-Lys-Trp-Ile-Gln-Asp)-NH2] ([Ahx]KWIQD-NH2; lactam N-6)
EC50: 0.005 µM

CC[C@H](C)[C@@H]1NC(=O)[C@H](Cc2c[nH]c3ccccc23)NC(=O)[C@H](CCCCN)NC(=O)[C@@H](NC(=O)C(C)C)CC(=O)NC[C@@H](C(N)=O)NC(=O)[C@H](CCC(N)=O)NC1=O [Example 6, Isobutyryl-c(Asp-Lys-Trp-Ile-Gln-Dap)-NH2] (Isobutyryl-DKWIQ[Dap]-NH2; lactam 1-6)
EC50: 0.005 µM

CC[C@H](C)[C@@H]1NC(=O)[C@H](Cc2c[nH]c3ccccc23)NC(=O)[C@H](CCCCN)NC(=O)[C@@H](NC(=O)C(C)C)CNC(=O)CC[C@@H](C(N)=O)NC(=O)[C@H](CCC(N)=O)NC1=O [Example 7, Isobutyryl-c(Dap-Lys-Trp-Ile-Gln-Glu)-NH2] (Isobutyryl-[Dap]KWIQE-NH2; lactam 1-6)
EC50: 0.005 µM

CC[C@H](C)[C@@H]1NC(=O)[C@H](Cc2c[nH]c3ccccc23)NC(=O)[C@H](CCCCN)NC(=O)CCCC(=O)NCCC[C@@H](C(N)=O)NC(=O)[C@H](CCC(N)=O)NC1=O [Example 8, c(Glutaryl-Lys-Trp-Ile-Gln-Orn)-NH2] (KWIQ[Orn]-NH2; linker N-5 via Glutaryl)
EC50: 0.005 µM

CC[C@H](C)[C@@H]1NC(=O)[C@H](Cc2c[nH]c3ccccc23)NC(=O)[C@H](CCCCN)NC(=O)[C@@H](NC(=O)[C@@H]2CCC(=O)N2)CSSC[C@@H](C(N)=O)NC(=O)[C@H](CCC(N)=O)NC1=O [Example 52, pGlu-c(Cys-Lys-Trp-Ile-Gln-Cys)-NH2] ([pGlu]CKWIQC-NH2; disulfide 2-7)
EC50: 0.025 µM

CCCC(=O)N[C@H]1CSSC[C@@H](C(N)=O)NC(=O)[C@H](CCC(N)=O)NC(=O)[C@H]([C@@H](C)CC)NC(=O)[C@H](Cc2c[nH]c3ccccc23)NC(=O)[C@H](CCCCN)NC1=O [Example 56, nButyryl-c(Cys-Lys-Trp-Ile-Gln-Cys)-NH2] (Butyryl-CKWIQC-NH2; disulfide 1-6)
EC50: 0.025 µM

CC[C@H](C)[C@@H]1NC(=O)[C@H](Cc2c[nH]c3ccccc23)NC(=O)[C@H](CCCCN)NC(=O)[C@@H](NC(=O)c2ccccc2)CSSC[C@@H](C(N)=O)NC(=O)[C@H](CCC(N)=O)NC1=O [Example 57, Benzoyl-c(Cys-Lys-Trp-Ile-Gln-Cys)-NH2] (Bz-CKWIQC-NH2; disulfide 1-6)
EC50: 0.015 µM

CC[C@H](C)[C@@H]1NC(=O)[C@H](Cc2c[nH]c3ccccc23)NC(=O)[C@H](CCCCN)NC(=O)[C@@H](NC(=O)C(C)C)CSSC[C@@H](C(N)=O)NC(=O)[C@H](CCC(N)=O)NC1=O [Example 58, Isobutyryl-c(Cys-Lys-Trp-Ile-Gln-Cys)-NH2] (Isobutyryl-CKWIQC-NH2; disulfide 1-6)
EC50: 0.008 µM

NCCCC[C@@H]1NC(=O)CCNC(=O)C[C@@H](C(N)=O)NC(=O)[C@H](CCC(N)=O)NC(=O)[C@H](Cc2c[nH]c3ccccc23)NC1=O [Example 59, c((βA1a-Lys-Trp-Gln-Asp)-NH2] ([βAla]KWQD-NH2; lactam N-5)
EC50: 0.025 µM

CC[C@H](C)[C@@H]1NC(=O)[C@H](Cc2c[nH]c3ccccc23)NC(=O)[C@H](CCCCN)NC(=O)CCCNC(=O)C[C@@H](C(N)=O)NC(=O)[C@H](CCC(N)=O)NC1=O [Example 60, c(Gaba-Lys-Trp-Ile-Gln-Asp)-NH2] ([GABA]KWIQD-NH2; lactam N-6)
EC50: 0.03 µM

CC[C@H](C)[C@@H]1NC(=O)[C@H](Cc2c[nH]c3ccccc23)NC(=O)[C@H](CCCCN)NC(=O)CCCNC(=O)CC[C@@H](C(N)=O)NC(=O)[C@H](CCC(N)=O)NC1=O [Example 61, c(Gaba-Lys-Trp-Ile-Gln-Glu)-NH2] ([GABA]KWIQE-NH2; lactam N-6)
EC50: 0.025 µM

CC[C@H](C)[C@@H]1NC(=O)[C@H](Cc2c[nH]c3ccccc23)NC(=O)[C@H](CCCCN)NC(=O)CCC(=O)NCCC[C@@H](C(N)=O)NC(=O)[C@H](CCC(N)=O)NC1=O [Example 62, c(Succinyl-Lys-Trp-Ile-Gln-Orn)-NH2] (KWIQ[Orn]-NH2; linker N-5 via Suc)
EC50: 0.066 µM

CC[C@H](C)[C@@H]1NC(=O)[C@H](Cc2c[nH]c3ccccc23)NC(=O)[C@H](CCCCN)NC(=O)CCC(=O)NCCCC[C@@H](C(N)=O)NC(=O)[C@H](CCC(N)=O)NC1=O [Example 63, c(Succinyl-Lys-Trp-Ile-Gln-Lys)-NH2] (KWIQK-NH2; linker N-5 via Suc)
EC50: 0.066 µM

CC[C@H](C)[C@@H]1NC(=O)[C@H](Cc2c[nH]c3ccccc23)NC(=O)[C@H](CCCCN)NC(=O)[C@@H](NC(C)=O)CC(=O)NCCCC[C@@H](C(N)=O)NC(=O)[C@H](CCC(N)=O)NC1=O [Example 64, Ac-c(Asp-Lys-Trp-Ile-Gln-Lys)-NH2] (Ac-DKWIQK-NH2; lactam 1-6)
EC50: 0.02 µM

CC[C@H](C)[C@@H]1NC(=O)[C@H](Cc2c[nH]c3ccccc23)NC(=O)[C@H](CCCCN)NC(=O)CSC[C@@H](C(N)=O)NC(=O)[C@H](CCC(N)=O)NC1=O [Example 65, c(Ac-Lys-Trp-Ile-Gln-Cys)-NH2] ({CH2CO}-KWIQC-NH2; thioether N-5)
EC50: 0.03 µM

CC[C@H](C)[C@@H]1NC(=O)[C@H](Cc2c[nH]c3ccccc23)NC(=O)[C@H](CCCCN)NC(=O)[C@@H](NC(=O)C(C)(C)C)CSSC[C@@H](C(N)=O)NC(=O)[C@H](CCC(N)=O)NC1=O [Example 66, Trimethylacetyl-c(Cys-Lys-Trp-Ile-Gln-Cys)-NH2] (Piv-CKWIQC-NH2; disulfide 1-6)
EC50: 0.01 µM

CC[C@H](C)[C@@H]1NC(=O)[C@H](Cc2c[nH]c3ccccc23)NC(=O)[C@H](CCCCN)NC(=O)[C@@H](NC(=O)c2ccc(-c3ccccc3)cc2)CSSC[C@@H](C(N)=O)NC(=O)[C@H](CCC(N)=O)NC1=O [Example 67, 4-Biphenylcarboxyl-c(Cys-Lys-Trp-Ile-Gln-Cys)-NH2] ({Benzoyl(4-Ph)}-CKWIQC-NH2; disulfide 1-6)
EC50: 0.008 µM

CC[C@H](C)[C@@H]1NC(=O)[C@H](Cc2c[nH]c3ccccc23)NC(=O)[C@H](CCCCN)NC(=O)[C@@H](NC(=O)c2cccc3ccccc23)CSSC[C@@H](C(N)=O)NC(=O)[C@H](CCC(N)=O)NC1=O [Example 68, 1-Naphthoyl-c(Cys-Lys-Trp-Ile-Gln-Cys)-NH2] (1Naphthoyl-CKWIQC-NH2; disulfide 1-6)
EC50: 0.03 µM

CC[C@H](C)[C@@H]1NC(=O)[C@H](Cc2c[nH]c3ccccc23)NC(=O)[C@H](CCCCN)NC(=O)[C@@H](NC(=O)c2ccc3ccccc3c2)CSSC[C@@H](C(N)=O)NC(=O)[C@H](CCC(N)=O)NC1=O [Example 69, 2-Naphthoyl-c(Cys-Lys-Trp-Ile-Gln-Cys)-NH2] (2Naphthoyl-CKWIQC-NH2; disulfide 1-6)
EC50: 0.015 µM

CC[C@H](C)[C@@H]1NC(=O)[C@H](Cc2c[nH]c3ccccc23)NC(=O)[C@H](CCCCN)NC(=O)[C@@H](NC(=O)c2cc3ccccc3[nH]2)CSSC[C@@H](C(N)=O)NC(=O)[C@H](CCC(N)=O)NC1=O [Example 70, 2-Indolecarboxyl-c(Cys-Lys-Trp-Ile-Gln-Cys)-NH2] (X4-CKWIQC-NH2; disulfide 1-6)
EC50: 0.005 µM

CC[C@H](C)[C@@H]1NC(=O)[C@H](Cc2c[nH]c3ccccc23)NC(=O)[C@H](CCCCN)NC(=O)[C@@H](NC(=O)Cc2ccc(C)cc2)CSSC[C@@H](C(N)=O)NC(=O)[C@H](CCC(N)=O)NC1=O [Example 71, p-Tolylacetyl-c(Cys-Lys-Trp-Ile-Gln-Cys)-NH2] ({Phenylacetyl(4-Me)}-CKWIQC-NH2; disulfide 1-6)
EC50: 0.01 µM
